Results reported in patent publication US20230002736A1, “ENDODERM DIFFERENTIATION FROM PLURIPOTENT STEM CELL LINES” (priority 2019, published 2023).
Entries after “also recorded” stand apart in the source; their conditions may differ. Where two headings read alike, the source gives them in different places.

Tests used:
iPSC lines [1] = type: cell-based; conditions: protocol without doxycycline
iPSC line AS7192 = assay: Endoderm induction compound comparison, cell number at day 7, line AS7192; type: cell-based, human; conditions: 1 μM concentration
Experimental: FIG. 2. Doxycycline Enhanced Endoderm. A: Immunofluorescence and bright-field images showing induction of iPSC line 1023-5 to definitive endoderm (DE) with Hoechst 33342 nuclear staining in blue, and antibody staining in green for OCT3/4, FOXA, HNF1p and CXCR4 with AlexaFluor 488 secondary (green) antibody. […] (scale bar=[…]); B: Compound Screen showing other antibiotics and other compounds affecting the mitochondria were compared to doxycycline. […] The number of cells is shown measured seven days after induction compared to the plating density at day 0 (n=2); C: Comparison of Tetracycline Derivatives in iPSC lines AG02261. […] The number of cells is shown measured seven days after induction compared to the plating density at day 0. […] FIG. 9. Comparison of Tetracycline Derivatives and Other Compounds in additional cell line. A: Induction of iPSC lines AS7192 was performed. […] The number of cells was measured seven days after induction compared to the plating density at day 0. […] Induction of Definitive Endoderm (days 1-7). iPSCs were plated on 6-, 12-, or 96-well Matrigel-coated plates at different densities for differentiation in iPSC media containing 10 μM Y-27632 and 2 μM doxycycline. For example, typical plating density in a single well of a 6-well plate was 500,000 cells or 20,000 cells per well for 96-well plates. […]

iPSC line AG02261 = assay: Endoderm induction compound comparison, cell number at day 7, line AG02261; type: cell-based, human; conditions: for response in compound screen, number of cells seven days after induction: cell line AG02261, FIG. 2B; for effect on endoderm induction at high concentration: AG02261, 10 μM concentration
Experimental: FIG. 2. Doxycycline Enhanced Endoderm. A: Immunofluorescence and bright-field images showing induction of iPSC line 1023-5 to definitive endoderm (DE) with Hoechst 33342 nuclear staining in blue, and antibody staining in green for OCT3/4, FOXA, HNF1p and CXCR4 with AlexaFluor 488 secondary (green) antibody. […] (scale bar=[…]); B: Compound Screen showing other antibiotics and other compounds affecting the mitochondria were compared to doxycycline. […] The number of cells is shown measured seven days after induction compared to the plating density at day 0 (n=2); C: Comparison of Tetracycline Derivatives in iPSC lines AG02261. […] The number of cells is shown measured seven days after induction compared to the plating density at day 0. […] Induction of Definitive Endoderm (days 1-7). iPSCs were plated on 6-, 12-, or 96-well Matrigel-coated plates at different densities for differentiation in iPSC media containing 10 μM Y-27632 and 2 μM doxycycline. For example, typical plating density in a single well of a 6-well plate was 500,000 cells or 20,000 cells per well for 96-well plates. The differentiation process consisted of one week of RPMI media supplemented with Gem21 NeuroPlex without insulin at 1× (supplied at 50×, Gemini Bio-Products West Sacramento, Calif., catalog #400-962, or supplemented with Gibco B27 without insulin at 1×), Glutagro at 1× (Corning, Manassas, Va., catalog #25-015-CI, non-essential amino acids at 1× (Gibco, catalog #11-140-050), sodium butyrate (0.5 mM, Sigma Aldrich, catalog #B5887) and recombinant human Activin A (100 ng/mL, Peprotech, Rocky Hill, N.J., catalog #120-14E) for 7 days. On day 1, 2% KnockOut Serum Replacement (KSR; Gibco Catalog #10828028), CHIR-99021 (10 ng/mL, Selleckchem catalog #S2924), PI-103 (10 ng/mL,Selleckchem catalog #S1038), recombinant human BMP4 (10 ng/mL, Peprotech catalog #120-05ET) and FGF2 (20 ng/mL, Peprotech catalog #100-18B) were added to the media. On day 2, 1% KSR, PI-103 (10 ng/mL) and BMP4 (10 ng/mL) and FGF2 (20 ng/mL) and on day 3, 0.2% KSR and PI-103 (10 ng/mL) were added to the media. Doxycycline hyclate (Acros Organics catalog #446061000) was added throughout definitive endoderm induction starting on day 0 (passage day) at various concentrations, as described herein, with a standard concentration being 2 μM. These steps can be performed at normal room oxygen at about 20% or at low oxygen between 4 and 6%.

iPSC lines [2] = type: cell-based; conditions: for ability to enhance survival of cells during induction to endoderm, other antibiotic classes compared to doxycycline: FIGS. 2B and 9B; for effect of adding Y-27632 to the protocol including doxycycline: cell lines still difficult to induce
Experimental: Induction of Definitive Endoderm (days 1-7). iPSCs were plated on 6-, 12-, or 96-well Matrigel-coated plates at different densities for differentiation in iPSC media containing 10 μM Y-27632 and 2 μM doxycycline. For example, typical plating density in a single well of a 6-well plate was 500,000 cells or 20,000 cells per well for 96-well plates. The differentiation process consisted of one week of RPMI media supplemented with Gem21 NeuroPlex without insulin at 1× (supplied at 50×, Gemini Bio-Products West Sacramento, Calif., catalog #400-962, or supplemented with Gibco B27 without insulin at 1×), Glutagro at 1× (Corning, Manassas, Va., catalog #25-015-CI, non-essential amino acids at 1× (Gibco, catalog #11-140-050), sodium butyrate (0.5 mM, Sigma Aldrich, catalog #B5887) and recombinant human Activin A (100 ng/mL, Peprotech, Rocky Hill, N.J., catalog #120-14E) for 7 days. On day 1, 2% KnockOut Serum Replacement (KSR; Gibco Catalog #10828028), CHIR-99021 (10 ng/mL, Selleckchem catalog #S2924), PI-103 (10 ng/mL,Selleckchem catalog #S1038), recombinant human BMP4 (10 ng/mL, Peprotech catalog #120-05ET) and FGF2 (20 ng/mL, Peprotech catalog #100-18B) were added to the media. On day 2, 1% KSR, PI-103 (10 ng/mL) and BMP4 (10 ng/mL) and FGF2 (20 ng/mL) and on day 3, 0.2% KSR and PI-103 (10 ng/mL) were added to the media. Doxycycline hyclate (Acros Organics catalog #446061000) was added throughout definitive endoderm induction starting on day 0 (passage day) at various concentrations, as described herein, with a standard concentration being 2 μM. These steps can be performed at normal room oxygen at about 20% or at low oxygen between 4 and 6%.

Question: For Cc1c[nH]c(-c2cnc(NCCNc3ccc(C#N)cn3)nc2-c2ccc(Cl)cc2Cl)n1 [CHIR99021], which “effect on number of cells in endoderm induction” value (iPSC lines [1]; addition in the first 24 hours) is on record?
Answer: improved the number of cells in multiple different cell lines

Question: CN(C)[C@@H]1C(O)=C(C(N)=O)C(=O)[C@@]2(O)C(O)=C3C(=O)c4c(O)ccc(Cl)c4[C@@H](O)[C@H]3C[C@@H]12 [Demeclocycline, demeclocycline] was tested. Which “ability to rescue endoderm induction compared to doxycycline” value (iPSC line AS7192) did it give?
Answer: to some extent

Question: With N=C(N)SCCc1ccc(OCc2ccc([N+](=O)[O-])cc2)cc1 [KB-R7943] as the compound, how does the “response in compound screen, number of cells seven days after induction” value (iPSC line AG02261) read?
Answer: showed responses at specific doses

Question: C=C1c2cccc(O)c2C(=O)C2=C(O)[C@]3(O)C(=O)C(C(N)=O)=C(O)[C@@H](N(C)C)[C@@H]3[C@@H](O)[C@H]12 [Methacycline, methacycline] was tested. Which “effect on endoderm induction at high concentration” value (iPSC line AG02261) did it give?
Answer: mostly toxicity

Question: Which “effect on endoderm induction at high concentration” value (iPSC line AG02261) does the source give for CN(C)c1ccc(O)c2c1C[C@H]1C[C@H]3[C@H](N(C)C)C(O)=C(C(N)=O)C(=O)[C@@]3(O)C(O)=C1C2=O [Minocycline, minocycline] here?
Answer: mostly toxicity

Question: COc1ccc(C[C@H](N)C(=O)N[C@H]2[C@@H](O)[C@H](n3cnc4c(N(C)C)ncnc43)O[C@@H]2CO)cc1 [Puromycin] was tested. Which “ability to enhance survival of cells during induction to endoderm, other antibiotic classes compared to doxycycline” value (iPSC lines [2]) did it give?
Answer: only Gentamicin showed a similar statistically significant ability

Question: How did the “response in compound screen, number of cells seven days after induction” value (iPSC line AG02261) turn out when N.N.N.N.N.N.N.N.N.N.N.N.N.N.[Cl-].[Cl-].[Cl-].[Cl-].[Cl-].[Cl-].[O-2].[O-2].[Ru+3].[Ru+3].[Ru+4] [Ruthenium Red] was run?
Answer: showed responses at specific doses

Question: How did the “rescue of induction by Y-27632 alone” value (iPSC lines [1]; resistant lines) turn out when C[C@@H](N)[C@H]1CC[C@H](C(=O)Nc2ccncc2)CC1 [Y-27632] was run?
Answer: does not produce the same robust induction; also recorded: not able to rescue resistant lines

Question: What about the “effect of adding Y-27632 to the protocol including doxycycline” value (iPSC lines [2]) of the same compound?
Answer: promoted the efficient and complete differentiation of these cell lines

Question: And the “effect of adding Y-27632 to the protocol including doxycycline” value (iPSC lines [2]; listed as Y27632)?
Answer: led to the rescue of additional stem cell lines

Question: For CC1(C)S[C@@H]2[C@H](NC(=O)[C@H](N)c3ccccc3)C(=O)N2[C@H]1C(=O)O [ampicillin], which “ability to enhance survival of cells during induction to endoderm, other antibiotic classes compared to doxycycline” value (iPSC lines [2]) is on record?
Answer: only Gentamicin showed a similar statistically significant ability

Question: Gentamicin [Gentamycin] was tested. Which “number of cells seven days after induction compared to the plating density at day 0 (compound screen)” value (iPSC lines [2]; antibiotics and mitochondria-affecting compounds compared to doxycycline, FIG. 2B) did it give?
Answer: strong increasing dose response
